US20260224674A1, “COMPOSITIONS COMPRISING PEDF-DERIVED SHORT PEPTIDES AND MESENCHYMAL STEM CELLS FOR BONE/CARTILAGE REGENERATION” (BRIM Biotechnology, Inc., priority 2022, published 2026)

How the values were obtained:
type X collagen = assay: Type X collagen immunohistochemistry (IHC) staining of the murine knee joint; assay type: in vivo, mouse; conditions: ACLT surgery induced OA mice
Method: (§1) The OA murine model is induced by anterior cruciate ligament (ACLT) surgery. In brief, a medial arthrotomy was performed. With the knee in full flexion, the patella was dislocated laterally, the anterior cruciate ligament (ACLT) was transected, and then the wounds were closed.
(§2) The ACLT surgery was performed on the unilateral knees of each mouse for 2 months prior to the treatments. Twenty mice were randomly divided into 5 groups: (i) non-treated group [n=3]; (ii) vehicle-treated group [n=4]; (iii) PDSP-treated group [n=5], (iv) vehicle combined with IPFP-MSC-treated group [n=3]; (v) PDSP combined with IPFP-MSC-treated group [n=5] in ACLT surgery induced OA groups, while the knees without surgery serve as sham-operated group [n=4]. At eight weeks after ACLT surgery (first injection), the knee joints of the non-treated, vehicle-treated, or PDSP-treated groups were intra-articular injected, respectively, with 0.01 mL PBS, vehicle, or PDSP, while those of the vehicle or PDSP combined with IPFP-MSC groups were injected with hMSCs in 0.01 mL. MSCs were intra-articular injected at the first treatment only (i.e., at 8 weeks). For the second treatments (two weeks after MSC injections or 10 weeks after ACLT surgery), those of the vehicle or PDSP combined with IPFP-MSC injection groups were injected with 0.01 mL vehicle or PDSP. […]

type II collagen = assay: Type II collagen immunohistochemistry (IHC) staining of the murine knee joint; assay type: in vivo, mouse; conditions: ACLT surgery induced OA mice; compared with non-treated and vehicle-treated OA groups
Method: as §1, §2

[1] = tested on: human bone marrow-derived mesenchymal stem cells (hBM-MSC); assay: hBM-MSC spheroid chondrogenesis, Alcian Blue staining at day 14; assay type: cell-based; conditions: PDSP 10 μM, chondrogenic differentiation medium with TGFβ1 10 ng/ml
Method: To shed light on possible mechanisms for the effects of PDSP chondrogenesis, further experiments were conducted to assess the effects of PDSP on MSC. The MSC used in this study are human bone marrow-derived mesenchymal stem cells (hBM-MSC) from Gibco (StemPro™ BM Mesenchymal Stem Cells). […] Human bone marrow MSC spheroids were cultured with chondrogenic differentiation medium, with or without TGFβ1 and with or without PDSP. The media were changed every 3 days. On day 14, the cartilage spheroids were collected for evaluation. The various media compositions are as follows (the base medium is a high-glucose DMEM supplemented with 1×10^−7M dexamethasone, 1×10^−3M sodium pyruvate, 1.7×10^−4M L-ascorbic acid-2-phosphate, 3.5×10^−4M proline, 5 mL ITS+Premix in 500 mL medium, and 1% antibiotic): […]

[2] = tested on: ACLT surgery induced osteoarthritis mouse model; assay: Safranin O and H&E histological staining of the murine knee joints; assay type: in vivo; conditions: ACLT surgery induced OA mice; compared with non-treated OA groups
Method: as §1, §2

[3] = tested on: ACLT surgery induced osteoarthritis mouse model; assay: OARSI histologic scoring of cartilage degradation in ACLT surgery induced OA murine model; assay type: in vivo
Method: as §1, §2

## SLGAEQRTESIIHRALYYDLISSPDIHGT (listed as Homo sapiens) [PDSP, PEDF-derived short peptide]
Type X collagen
  Type X collagen signals (IHC): decreased
Type II collagen
  Expression of type II collagen (IHC): increased
[1]
  Cartilage spheroids size (total area): increase the cartilage spheroids size
  Chondrogenesis (Alcian blue positive area; differentiation of hBM-MSC into chondrocytes): promote chondrogenesis
[2]
  Cartilage loss and surface irregularity in the medial and lateral compartments (safranin O and H&E staining): less cartilage loss and surface irregularity
[3]; ACLT surgery induced OA groups, text values with their spread (SEM per Table 2)
  OARSI scores: 3.47±0.19
[3]; ACLT surgery induced osteoarthritis mice, intra-articular injection at 8 and 10 weeks after surgery, average over animals
  The histologic scoring of murine OA (OARSI score), Average: 3.47
